From the NIST ThermoML archive (doi:10.1016/j.fluid.2012.06.002)
Numbers after ± are expanded uncertainties.

Experiment: wn = mass fraction of the nth substance listed
Conditions: 101 kPa, Liquid, pycnometer

SMILES	mass density (298.15 K, w1 = 0.293) [kg/m3]	mass density (328.15 K, w1 = 0.436) [kg/m3]	mass density (298.15 K, w1 = 0.538) [kg/m3]	mass density (328.15 K, w1 = 0.734) [kg/m3]
N.O=P(O)(O)O [ammonium dihydrogen phosphate] + O	1164 ± 1	1258 ± 1	–	–
NC(N)=O.O=P(O)(O)O [urea phosphate] + O	–	–	1260 ± 1	1359 ± 2
